Data reported in PubChem BioAssay (NCI).
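Exposure lasted 48 hours, with cells grown in 96-well plates and compounds tested at five concentrations. TGI marks complete inhibition of growth.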

Legend:
Assay in all cases: NCI-60 cell line screen, 48 h
[1] = system: 786-0 renal
[2] = system: HOP-92 NSCLC
[3] = system: HT29 colon
[4] = system: LOX IMVI melanoma
[5] = system: M14 melanoma
[6] = system: MOLT-4 leukemia
[7] = system: NCI-H226 lung
[8] = system: NCI-H23 lung
[9] = system: NCI-H460 lung
[10] = system: OVCAR-3 ovarian
[11] = system: SF-268 CNS
[12] = system: SF-295 CNS
[13] = system: SN12C renal
[14] = system: TK-10 renal
[15] = system: SNB-19 CNS
[16] = system: HOP-62 NSCLC

SMILES	TGI [1] [µM]	TGI [2] [µM]	TGI [3] [µM]	TGI [4] [µM]	TGI [5] [µM]	TGI [6] [µM]	TGI [7] [µM]	TGI [8] [µM]	TGI [9] [µM]	TGI [10] [µM]	TGI [11] [µM]	TGI [12] [µM]	TGI [13] [µM]	TGI [14] [µM]	TGI [15] [µM]	TGI [16] [µM]
CC1CCOc2ccc(cc2)C=Nc2ccc(cc2)-c2ccc(cc2)N=Cc2ccc(cc2)OCC1 (stereo unspecified)	> 100	> 100	> 100	> 100	> 100	> 100	> 100	> 100	> 100	> 100	> 100	> 100	> 100	> 100	–	–
COc1cc2c(c(OC)c1OC)-c1ccc(SC)c(=O)cc1[C@@H](NCc1cccc([N+](=O)[O-])c1)CC2	34.4	> 100	< 0.01	38.1	13.1	> 100	< 0.01	< 0.01	12.4	< 0.01	28	> 100	> 100	> 100	> 100	–
S=C(N/N=C(\C(=N/NC(=S)N1CCCCC1)c1ccccn1)c1ccccn1)N1CCCCC1	> 100	> 100	> 100	> 100	50.3	> 100	> 100	> 100	> 100	> 100	> 100	> 100	–	> 100	> 100	> 100
O=C1CCC2(c3ccc(Cl)cc3)Nc3ncncc3N12 (stereo unspecified)	> 10	> 10	> 10	> 10	> 10	> 10	> 10	> 10	> 10	> 10	> 10	> 10	> 10	> 10	> 10	–
COc1cc(C2c3cc(OC)c(OC)c(O)c3C(=O)C3CCC(=O)N32)cc(OC)c1OC (stereo unspecified)	> 100	> 100	> 100	> 100	> 100	> 100	> 100	–	> 100	> 100	> 100	> 100	> 100	> 100	> 100	> 100
O=C(CC(c1ccccc1)C(C(=O)c1ccncc1)C(CC(=O)c1ccncc1)c1ccccc1)c1ccncc1 (stereo unspecified)	> 100	> 100	> 100	> 100	> 100	> 100	> 100	> 100	> 100	> 100	> 100	70.3	–	> 100	> 100	> 100
COc1cc2[nH]c(=O)c3cc(C)cc4c(Cl)nc(c1OC)c2c43	> 100	> 100	> 100	> 100	> 100	> 100	> 100	> 100	> 100	> 100	84.8	> 100	–	> 100	> 100	75.7
O=C1C=C(O)c2c(O)ccc(O)c2C1=O	> 100	> 100	> 100	> 100	> 100	> 100	> 100	> 100	> 100	> 100	> 100	> 100	–	> 100	> 100	> 100
Cn1cnc(SC2=C3C(=O)C=C4S[C@H]5C[C@]42c2c(c(O)c4c6c2=[N+]3CCC=6C=N4)N5)c1CC(N)C(=O)O (stereo partly specified)	59.7	34.5	17.1	26.1	29.1	33.7	36.5	23.8	> 100	14.6	25.1	29.4	10.2	> 100	32	–
COC12C=CC(CC1)C(C)(C)C2OS(C)(=O)=O (stereo unspecified)	> 100	> 100	> 100	–	> 100	> 100	> 100	> 100	> 100	> 100	> 100	> 100	> 100	> 100	> 100	> 100
O=C1CC(C(COCc2ccccc2)OCc2ccccc2)CC(=O)N1 (stereo unspecified)	> 100	> 100	> 100	> 100	> 100	> 100	> 100	> 100	–	> 100	> 100	> 100	> 100	> 100	> 100	> 100
O=C(NNS(=O)(=O)c1ccccc1)c1csc(NC(=S)NC2CCCCC2)n1	32.4	> 100	> 100	33.9	> 100	> 100	> 100	> 100	–	34.4	62.8	> 100	39.3	> 100	–	> 100
O=c1[nH]c(=O)n(COCc2ccccc2)c2ccccc12	> 100	> 100	> 100	> 100	> 100	> 100	> 100	–	> 100	> 100	–	> 100	> 100	> 100	> 100	–
